Experimental data as given in patent US10023575B2, “Cyclic ether derivatives of pyrazolo[1,5-a]pyrimidine-3-carboxyamide” (Boehringer Ingelheim International GmbH, priority 2015, dated 2018).
Read-outs that look alike come from different tables or passages of the source.

Assays:
PDE10 = PDE10 (Homo sapiens (Human), UniProt Q9Y233); assay: Phosphodiesterase (PDE) 10 assay with fluorescent substrate (IMAP, fluorescence polarization); type: biochemical; settings: labeled cAMP 30 nM
Protocol: (§1) The PDE reaction cleaves cAMP to AMP. The IMAP system (Molecular Device) using fluorescence polarization (FP) as detection principle was used to measure enzyme activity. A fluorescent labeled cAMP was used as substrate for the reaction, generating a labeled AMP. The fluorescent AMP binds specifically to the large M(III)-based nano-particles which reduces the rotational speed of the substrate and thus increases its polarization.
(§2) The inhibition of PDE 2A or 10 enzyme activity was assessed using IMAP-Phosphodiesterase-cAMP fluorescence labeled substrate (Molecular Devices, Order No. R7506), IMAP TR-FRET screening express (Molecular Devices, Order No. R8160, the TR-FRET component will not be used) and PDE 2A or PDE10 protein expressed upon baculovirus infection in SF9 cells. The cells were incubated after infection for ˜3 days and protein production was confirmed by Western Blot. The cells were collected by centrifugation and the pellet frozen in liquid nitrogen before it was resuspended in PBS containing 1% Triton X-100 and protease inhibitors. After 45 min incubation on ice, the cell debris was removed by centrifugation (13.000 rpm, 30 min).
(§3) All reactions were performed in 384 well plates, Perkin Elmer black optiplates and IMAP reaction buffer with 0.1% Tween20 (kit component)
(§4) Compounds were serial diluted in DMSO. With an intermediate dilution step with reaction buffer DMSO concentration was reduced to achieve 1% DMSO in the assay reaction. Setup of the assay started with 10 μl enzyme (˜10 ng/well, depending on prep. batch), 5 μl compound, reaction was started by addition of 5 μl labeled cAMP (30 nM, final concentration), immediately mixed for 15 seconds on a Eppendorf mixmate (2000 rpm) followed by an incubation at room temperature for 90 minutes in the dark. Reaction is stopped by adding of 60 μl binding buffer for FP/cAMP (kit component).
(§5) Each assay plate contained wells with vehicle controls (1% DMSO) for the measurement of non-inhibited reaction (=100% control) and wells without enzyme as 0% controls.

[1] = Plasma protein binding with equilibrium dialysis, human plasma; type: in vitro ADME; settings: equilibrium dialysis 2 hours 37° C.; for fraction unbound at 2 h, 1 µM: human, pooled human plasma (with NaEDTA), pH 7.4, human plasma, read-out: PPB HUM % BINDING (converted); for PPB HUM % BINDING: human plasma, 1.0 μM
Source text: (§6) Plasma Protein Binding (Determination of Human and Rat Plasma Protein Binding with Equilibrium Dialysis)
(§7) This equilibrium dialysis (ED) technique is used to determine the approximate in vitro fractional binding of test compounds to human and rat plasma proteins.
(§8) Dianorm Teflon dialysis cells (micro 0.2) are used. Each cell consists of a donor and an acceptor chamber, separated by an ultrathin semipermeable membrane with a 5 kDa molecular weight cutoff.
(§9) Stock solutions for each test compound are prepared in DMSO at 1 mM and diluted to a final concentration of 1.0 μM. The subsequent dialysis solutions are prepared in pooled human and rat plasma (with NaEDTA)
(§10) Aliquots of 200 μL dialysis buffer (100 mM potassium phosphate, pH 7.4) are dispensed into the buffer chamber. Aliquots of 200 μL test compound dialysis solution are dispensed into the plasma chambers. Incubation is carried out for 2 hours under rotation at 37° C.
(§11) At the end of the dialysis period, the dialysate is transferred into reaction tubes. The tubes for the buffer fraction contain 0.2 ml Acetonitril/water (80/20). Aliquots of 25 μl of the plasma dialysate are transferred into deep well plates and mixed with 25 μl Acetonitril/water (80/20), 25 μl buffer, 25 μl calibration solution and 25 μl Internal Standard solution. Protein precipitation is done by adding 200 μl Acetonitrile. Aliquots of 50 μl of the buffer dialysate are transferred into deep well plates and mixed with 25 μl blank plasma, 25 μl Internal Standard solution and 200 μl Acetonitril. Samples are measured on HPLC-MS/MS-Systems and evaluated with Analyst-Software.
(§12) Percent bound is calculated with the formula: % bound=(plasma concentration−buffer concentration/plasma concentration)×100 and % free is calculated as difference.

[2] = Plasma protein binding with equilibrium dialysis, rat plasma; type: in vitro ADME; settings: rat, pooled rat plasma (with NaEDTA), pH 7.4, rat plasma, equilibrium dialysis 2 hours 37° C., read-out: PPB RAT % BINDING (converted)
Source text: as §6, §7, §8, §9, §10, §11, §12

[3] = Metabolic stability in pooled human liver microsomes; type: in vitro ADME; settings: 1 mg/mL protein, 1 μM compound, 37° C.; for half-life at 1 µM: human, pooled human liver microsomes, pH 7.6, human liver microsomes, read-out: Half-life t½ human; for Half-life t½ human: human liver microsomes
Protocol: The metabolic degradation of the test compound was assayed at 37° C. with pooled liver microsomes from various species. The final incubation volume of 100 μl per time point contains TRIS buffer pH 7.6 at room temperature (0.1 M), magnesium chloride (5 mM), microsomal protein (1 mg/mL for human and dog, 0.5 mg/mL for other species) and the test compound at a final concentration of 1 μM. Following a short preincubation period at 37° C., the reactions were initiated by addition of betanicotinamide adenine dinucleotide phosphate, reduced form (NADPH, 1 mM), and terminated by transferring an aliquot into solvent after different time points. […] The half-life was determined by the slope of the semi-logarithmic plot of the concentration-time profile.

PDE 2A = PDE 2A (Homo sapiens (Human), UniProt O00408); assay: Phosphodiesterase (PDE) 2A assay with fluorescent substrate (IMAP, fluorescence polarization); type: biochemical; settings: labeled cAMP 30 nM, read-out: PDE2 IC50
Protocol: as §1, §2, §3, §4, §5

[4] = In-vivo effect: animal experiments and sample analysis (plasma, brain, CSF concentration); settings: rat, 0.5 h between administration and CSF sampling; for concentration at 0.5 h: doses of 10.0 or 5 μmol/kg
Protocol: In-Vivo Effect: Animal Experiments and Sample Analysis (CSF):
CSF samples were carefully collected by puncture of the cisterna magna under anesthaesia. Immediately after CSF sampling, blood was taken by heart puncture and brains were dissected out. Blood was collected in EDTA-coated microvettes and plasma was prepared by centrifugation. Concentration of the test compounds in plasma, CSF or brain homogenate was determined using HPLC-MS-MS.

[5] = brain homogenate, read-out: conc brain
[6] = brain, read-out: c(brain)/c(plasma)

PDE10, sequence (Q9Y233 whole entry): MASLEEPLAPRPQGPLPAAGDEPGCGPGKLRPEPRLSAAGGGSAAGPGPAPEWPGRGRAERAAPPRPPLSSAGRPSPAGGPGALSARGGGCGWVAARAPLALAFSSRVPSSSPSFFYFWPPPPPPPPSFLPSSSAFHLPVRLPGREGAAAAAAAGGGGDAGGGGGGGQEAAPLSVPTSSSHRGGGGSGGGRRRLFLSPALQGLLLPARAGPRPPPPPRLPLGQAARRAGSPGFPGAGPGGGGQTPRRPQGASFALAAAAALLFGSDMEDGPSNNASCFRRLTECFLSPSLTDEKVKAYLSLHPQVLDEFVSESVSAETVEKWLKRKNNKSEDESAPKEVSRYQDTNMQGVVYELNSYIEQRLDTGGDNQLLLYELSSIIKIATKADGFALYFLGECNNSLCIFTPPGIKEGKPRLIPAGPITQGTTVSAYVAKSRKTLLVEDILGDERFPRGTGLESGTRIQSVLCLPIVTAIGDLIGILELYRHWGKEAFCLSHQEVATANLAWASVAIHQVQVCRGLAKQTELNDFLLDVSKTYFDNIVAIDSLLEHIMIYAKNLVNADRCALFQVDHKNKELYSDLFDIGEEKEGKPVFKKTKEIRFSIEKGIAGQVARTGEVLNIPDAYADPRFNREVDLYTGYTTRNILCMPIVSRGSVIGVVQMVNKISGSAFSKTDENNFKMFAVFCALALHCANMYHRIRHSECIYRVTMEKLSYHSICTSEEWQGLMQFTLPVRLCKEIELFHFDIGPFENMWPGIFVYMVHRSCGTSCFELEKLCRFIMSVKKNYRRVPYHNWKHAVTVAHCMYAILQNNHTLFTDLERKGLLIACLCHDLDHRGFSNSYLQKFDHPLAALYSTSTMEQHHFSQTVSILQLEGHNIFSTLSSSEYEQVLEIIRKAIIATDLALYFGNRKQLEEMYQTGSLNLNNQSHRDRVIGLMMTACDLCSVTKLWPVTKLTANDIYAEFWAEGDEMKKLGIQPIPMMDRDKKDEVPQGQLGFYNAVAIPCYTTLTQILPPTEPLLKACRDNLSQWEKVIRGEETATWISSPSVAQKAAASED
PDE 2A, sequence (O00408 whole entry, species assumed): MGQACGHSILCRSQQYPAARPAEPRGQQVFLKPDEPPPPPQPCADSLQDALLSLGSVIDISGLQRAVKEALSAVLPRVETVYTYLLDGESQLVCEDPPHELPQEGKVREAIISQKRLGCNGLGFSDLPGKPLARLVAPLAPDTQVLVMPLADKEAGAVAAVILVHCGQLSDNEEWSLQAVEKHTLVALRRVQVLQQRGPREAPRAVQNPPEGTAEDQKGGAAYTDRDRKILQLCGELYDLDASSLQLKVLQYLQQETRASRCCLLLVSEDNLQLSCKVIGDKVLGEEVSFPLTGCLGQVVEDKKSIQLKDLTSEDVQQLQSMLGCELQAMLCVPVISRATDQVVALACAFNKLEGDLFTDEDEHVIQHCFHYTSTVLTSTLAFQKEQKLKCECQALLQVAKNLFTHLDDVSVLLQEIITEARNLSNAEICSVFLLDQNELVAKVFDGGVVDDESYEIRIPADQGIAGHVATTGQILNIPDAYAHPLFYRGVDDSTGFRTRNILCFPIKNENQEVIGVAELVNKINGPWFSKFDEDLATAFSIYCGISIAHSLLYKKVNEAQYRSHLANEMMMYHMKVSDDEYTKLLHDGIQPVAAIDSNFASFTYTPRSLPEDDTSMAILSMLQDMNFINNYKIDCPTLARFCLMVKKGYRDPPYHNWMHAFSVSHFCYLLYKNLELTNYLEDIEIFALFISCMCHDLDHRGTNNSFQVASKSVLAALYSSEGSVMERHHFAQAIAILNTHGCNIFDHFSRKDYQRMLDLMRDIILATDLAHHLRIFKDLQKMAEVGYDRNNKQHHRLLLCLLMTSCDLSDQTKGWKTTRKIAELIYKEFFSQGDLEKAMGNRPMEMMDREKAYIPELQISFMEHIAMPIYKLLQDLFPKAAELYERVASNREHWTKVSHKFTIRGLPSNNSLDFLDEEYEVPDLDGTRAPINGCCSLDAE

IC50 (PDE10) [nM] | fraction unbound at 2 h, 1 µM [1] | fraction unbound at 2 h, 1 µM [2] | half-life at 1 µM [3] [h] | IC50 (PDE 2A) [nM] | concentration at 0.5 h [4, 5] [nM] | concentration at 0.5 h ([4]; plasma, read-out: conc plasma) [nM] | concentration at 0.5 h ([4]; read-out: conc CSF) [nM] | PPB HUM % BINDING [1] [%] | Half-life t½ human [3] [h] | Kp at 0.5 h [4, 6] | Kp at 0.5 h ([4]; read-out: c(CSF)/c(plasma)) | Compound
> 10000 | 0.329 | 0.313 | > 2.17 |  |  |  |  |  |  |  |  | Cc1cnc2c(C(=O)NC3(c4ccc(C(F)(F)F)cc4F)CCOCC3O)cnn2c1 (racemic) [Example 46]
 | 0.105 | 0.065 |  |  |  |  |  |  |  |  |  | CC1(O)COCCC1(NC(=O)c1cnn2cc(C3CC3)cnc12)c1ccc(C(F)(F)F)cc1F (single isomer, unassigned) [Example 86a]
6940 | 0.086 | 0.093 | > 2.17 | 39 |  |  |  |  |  |  |  | Cc1nn2cc(C3CC3)cnc2c1C(=O)NC1(c2ncc(C(F)(F)F)cc2F)CCOCC1 [Example 17]
> 10000 | 0.056 | 0.065 | > 2.17 | 192 |  |  |  |  |  |  |  | O=C(NC1(c2ccc(C(F)(F)F)cc2)CCOC1)c1cnn2cc(C3CC3)cnc12 (racemic) [Example 37]
 | 0.156 | 0.178 | > 2.17 |  | 449 | 794 | 61 |  |  |  |  | Cc1cnc2c(C(=O)NC3(c4ccc(C(F)(F)F)cc4F)CCOCC3(C)O)cnn2c1 (single isomer, unassigned) [Example 83a]
> 10000 | 0.076 | 0.063 |  | 31 |  |  |  |  |  |  |  | Cc1cnc2c(C(=O)NC3(c4ccc(C(F)(F)F)cc4F)CCOC3)cnn2c1 (racemic) [Example 35]
> 10000 | 0.047 | 0.024 |  | 30 |  |  |  |  |  |  |  | Cc1cnc2c(C(=O)NC3(c4ccc(C(F)(F)F)cc4F)CCCOC3)cnn2c1 (racemic) [Example 31]
> 10000 |  |  |  | 24 |  |  |  | 84.4 | >2.17 |  |  | O=C(NC1(c2ccc(C(F)(F)F)cc2F)COCC1O)c1cnn2cc(C3CC3)cnc12 (single isomer, unassigned) [Example 68]
> 10000 | 0.157 |  | 1.2 | 266 |  |  |  |  |  |  |  | O=C(NC1(c2ccc(C(F)(F)F)cc2F)CCOCC1)c1cnn2cc(F)cnc12 [Example 3]
 | 0.558 |  | > 2.17 |  |  |  |  |  |  |  |  | Cc1nn2cc(C3CC3)cnc2c1C(=O)NC1(c2ccc(C(F)(F)F)nc2)CCOCC1O (single isomer, unassigned) [Example 88b]
> 10000 | 0.37 | 0.257 | > 2.17 |  | 1070 | 2460 | 261 |  |  |  |  | Cc1cnc2c(C(=O)NC3(c4ccc(C(F)(F)F)cc4F)CCOCC3O)cnn2c1 (single isomer, unassigned) [Example 81a]
 | 0.183 |  |  |  |  |  |  |  |  |  |  | CC1(O)COCCC1(NC(=O)c1cnn2cc(C3CC3)cnc12)c1ccc(C(F)(F)F)cc1F (racemic) [Example 53]
> 10000 | 0.162 | 0.128 | > 2.17 | 74 | 1320 | 1210 | 106 |  |  | 1.17 | 0.09 | Cc1nn2cc(C3CC3)cnc2c1C(=O)NC1(c2ccc(C(F)(F)F)cn2)CCOCC1 [Example 21]
> 10000 | 0.213 | 0.135 | > 2.17 | 1.2 | 1180 | 3320 | 157 |  |  | 0.36 | 0.05 | O=C(NC1(c2ccc(C(F)(F)F)cc2F)CCOCC1O)c1cnn2cc(C3CC3)cnc12 (single isomer, unassigned) [Example 82a]
> 10000 |  |  |  | 70 |  |  |  |  |  |  |  | O=C(N[C@]1(c2ccc(C(F)(F)F)cc2F)CCOC[C@@H]1O)c1cnn2cc(C3CC3)cnc12 (racemic) [Example 49]
9070 | 0.246 | 0.169 | > 2.17 | 88 | 957 | 1040 | 111 |  |  | 0.92 | 0.12 | Cc1nn2cc(C3CC3)cnc2c1C(=O)NC1(c2ccc(C(F)(F)F)nc2)CCOCC1 [Example 25]
> 10000 |  |  |  | 1740 |  |  |  | 90.7 | 0.883 |  |  | O=C(NC1(c2ccc(C(F)(F)F)cc2F)COCC1O)c1cnn2cc(C3CC3)cnc12 (single isomer, unassigned) [Example 69]
> 10000 |  |  |  | 50 |  |  |  |  |  |  |  | Cc1cnc2c(C(=O)NC3(c4ccc(C(F)(F)F)cc4F)CCOCC3=O)cnn2c1 (stereo not shown) [Example 67]
> 10000 |  |  |  | 69 |  |  |  |  |  |  |  | O=C(NC1(c2ccc(C(F)(F)F)cc2)CCOCC1)c1cnn2cc(C3CC3)cnc12 [Example 8]
5590 |  |  |  | 130 |  |  |  |  |  |  |  | Cc1nn2cc(C3CC3)cnc2c1C(=O)NC1(c2ccc(C(F)(F)F)nc2)CCOC1 (racemic) [Example 42]
 | 0.531 |  | > 2.17 |  |  |  |  |  |  |  |  | Cc1nn2cc(C3CC3)cnc2c1C(=O)NC1(c2ccc(C(F)(F)F)nc2)CCOCC1O (racemic) [Example 51]
> 10000 | 0.085 | 0.053 | 2 | 22 |  |  |  |  |  |  |  | Cc1cnc2c(C(=O)NC3(c4ccc(C(F)(F)F)cc4F)CCOCC3)cnn2c1 [Example 2]
